From BindingDB's records for patent US20240124439 (Pfizer, 2024)

These molecules were tested against T1, Tyrosine-protein kinase ITK/TSK (Homo sapiens, UniProt Q08881) (assay: ITK Enzyme Assay).
T1 sequence (Q08881 whole entry): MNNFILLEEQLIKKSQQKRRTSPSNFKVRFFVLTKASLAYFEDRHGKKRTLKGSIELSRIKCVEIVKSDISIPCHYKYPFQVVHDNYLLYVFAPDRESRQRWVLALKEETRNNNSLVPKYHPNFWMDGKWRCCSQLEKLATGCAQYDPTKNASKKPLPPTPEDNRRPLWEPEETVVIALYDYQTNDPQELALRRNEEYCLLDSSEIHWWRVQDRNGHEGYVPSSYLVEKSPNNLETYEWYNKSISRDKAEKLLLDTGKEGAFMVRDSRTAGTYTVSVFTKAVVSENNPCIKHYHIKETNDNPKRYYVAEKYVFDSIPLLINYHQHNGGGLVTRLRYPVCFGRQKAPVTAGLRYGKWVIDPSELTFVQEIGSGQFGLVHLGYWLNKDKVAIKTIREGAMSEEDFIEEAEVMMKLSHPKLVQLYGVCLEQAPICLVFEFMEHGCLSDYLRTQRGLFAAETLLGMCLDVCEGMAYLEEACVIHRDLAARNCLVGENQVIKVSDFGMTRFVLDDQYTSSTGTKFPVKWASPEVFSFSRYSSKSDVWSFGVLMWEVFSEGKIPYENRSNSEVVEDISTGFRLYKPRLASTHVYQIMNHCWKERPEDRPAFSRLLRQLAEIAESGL
Method: 1.0 M HEPES Buffer pH 7.5 solution was prepared as follows: 238.3 g HEPES free acid (Sigma) and 800 mL of water were combined, and the mixture was stirred until complete dissolution. The pH was adjusted to 7.5 via titration with 5N NaOH and the volume adjusted to 1000 mL. The solution was filtered and sterilized.ITK assay buffer was prepared as follows: 50 mL of HPLC-grade water was treated with 2 mL of 1.0 M HEPES Buffer, 500 μL of 2% Gelatin (Sigma), 1.0 mL of aqueous MgCl2 solution (1.0 M), and 1.0 mL of aqueous glutathione solution (0.5 M), and the solution was mixed. The solution was brought to 99 mL in a graduated cylinder by addition of water and sterilized through a 0.2 μm filter. 0.1 mL of Brij-35 Surfact-Amps Detergent Solution (10% w/v aqueous solution, ThermoFisher) and 1.0 mL of ATP (Teknova,100 mM) were added and the solution was mixed.Preparation of 1.33 ITK enzyme solution was as follows: 49.99 mL of ITK assay buffer was treated with 4.1 μL of ITK enzyme (ITK FL (N-Flag and C-His tagged, […]) Lake Pharma, 0.25 mg/ml in a buffer containing 25 mM Tris pH 7.8, 150 mM NaCl, 10% glycerol and 2 mM TCEP) and the mixture was gently agitated. The resulting solution was stored on ice. 30 Minutes prior to use, the enzyme solution was removed from ice and equilibrated to RT by incubation in a RT water bath.

SMILES | IC50
CCN(C(=O)[C@H](C)C1CCOCC1)c1cnc2[nH]c(-c3n[nH]c4c3CCC(C)(C)C4)nc2c1 [US20240124439, Example 18] | 28 nM
CN(C(=O)CC1CC2(C1)CC(F)(F)C2)c1cnc2nc(-c3n[nH]c4c3C[C@@H]3C[C@]3(C)C4)[nH]c2c1 [US20240124439, Example 54] | 62 nM
C[C@@H](C(=O)N(C)c1cnc2[nH]c(-c3n[nH]c4c3CCC(C)(C)C4)nc2c1)N1CCOCC1 [US20240124439, Example 14] | 147 nM
C[C@H](C(=O)N(C)c1cnc2[nH]c(-c3n[nH]c4c3C[C@@H]3C[C@]3(C)C4)nc2c1)N1CCOCC1 [US20240124439, Example 26] | 136 nM
CN(C(=O)CC1CC(F)(F)C1)c1cnc2nc(-c3n[nH]c4c3C[C@@H]3C[C@]3(C)C4)[nH]c2c1 [US20240124439, Example 48] | 66 nM
CN(C(=O)CC1CC2(CCC2)C1)c1cnc2nc(-c3n[nH]c4c3C[C@@H]3C[C@]3(C)C4)[nH]c2c1 [US20240124439, Example 49] | 25 nM

The remaining molecules from weak to strong by IC50, led by results:

IC50 | SMILES
2000 nM | C[C@@H](C(=O)Nc1ccc2[nH]c(-c3n[nH]c4c3CCC(C)(C)C4)nc2c1)N1CCOCC1 [US20240124439, Example 33]
747 nM | CC(C)(C(=O)Nc1cnc2[nH]c(-c3n[nH]c4c3C[C@@H]3C[C@]3(C)C4)nc2c1)N1CCOCC1 [US20240124439, Example 16]
147 nM | CCc1nc2[nH]c(-c3n[nH]c4c3C[C@@H]3C[C@]3(C)C4)nc2cc1N(C)C(=O)CN1CCOCC1 [US20240124439, Example 37]
33 nM | CN(C(=O)CC1CC2(C1)CC2(F)F)c1cnc2nc(-c3n[nH]c4c3C[C@@H]3C[C@]3(C)C4)[nH]c2c1 (stereo not given in full) [US20240124439, Example 50]
